Here are results for 27 compounds from US8530650B2, “2, 5-diamino-substituted pyrido [4, 3-D] pyrimidines as autotaxin inhibitors against cancer” (MERCK PATENT GmbH, priority 2008, dated 2013).

The assay deals with T1, recombinant autotaxin (Homo sapiens, UniProt Q13822).
T1 construct: made in house; host or cells: Hi5 insect cells (baculovirus)
The assay can be described thus: Autotaxin assay (Amplex Red, LPC substrate). Format: biochemical. The following applies: 75 μM LPC, Amplex Red fluorescence, ten 1:3 dilutions starting at 30 μM. Here is the method:
Autotaxin activity is measured indirectly by means of Amplex Red Reagent. In this course, Amplex Red is measured as fluorogenic indicator for generated H2O2. Autotaxin converts substrate lysophosphatidylcholine (LPC) to phosphocholine and lysophosphatidylic acid (LPA). After the conversion phosphocholine is reacted with alkaline phosphatase to obtain inorganic phosphate and choline. During the next step choline is oxidized with choline oxidase to yield betaine, whereby H2O2 is generated. H2O2 reacts with Amplex Red Reagent in the presence of peroxidase (Horseradish peroxidase) in an 1:1 stochiometry and yields highly fluorescent resorufin. The generated fluorescence is measured in a reaction-dependent kinetic mode in order to enable subtraction of fluorescence signals of possible other fluorescent compounds that are not part of the reaction from total measured fluorescence.
1.5 μl of a standard solution or of the compounds of the invention are dissolved in 20 mM Hepes pH 7.2 with maximally 7.7% DMSO in individual concentrations. The resulting solution is pre-incubated together with 10 μl (16 ng) of highly purified recombinant autotaxin in a black 384-hole microtiter plate for 30 min at 22° C. Thereafter, the reaction is started through the addition of 5 μL-a-lysophosphatidylcholine (LPC), whereby the final concentration of LPC is 75 μM. The mixture is incubated for 90 min. at 37° C. After the incubation Amplex Red Reagent, peroxidase (Horseradish peroxidase) and choline oxidase are added. The fluorescence is immediately measured at a wavelength of 612 nm with an excitation wavelength of 485 nm in a “Tecan Ultra multimode” fluorescence reader. The activity of autotaxin is indirectly calculated via the amount of detected generated H2O2.
For IC50 analysis, ten serial 1:3 dilutions starting at 30 μM for each compound were run in duplicates.
IC50 values were calculated on normalized data. For normalization, control wells were added to each assay plate and the signal of uninhibited control wells was set to 100%, whereas the signal inhibited by 500 μM C14 LPA, (Avanti Polar Lipids, Cat# 857120P) was set to 0%. Curves were fitted and IC50 values calculated by the following model using proprietary analysis software: Y=Bottom+(100−Bottom)/(1+10^((LogIC50−X)*HillSlope))
Where X is the logarithm of concentration. Y is the response; Y starts at Bottom and goes to Top with a sigmoid shape.
Protein: Recombinant autotaxin (baculoviral Hi5 expression)
Substrate: L-a-lysophosphatidyl choline (chicken egg); Avanti Polar Lipids #830071 P
Standard: C14 LPA, Avanti Polar Lipids, Cat# 857120P
Detection Reagent Amplex Red Reagent; Invitrogen #A12222; dissolved in 1.923 ml of DMSO peroxidase Type VI-A (horseradish), Sigma #P6782; dissolved in 7.45 ml of test buffer, Choline Oxidase; Sigma #C5896; dissolved in 2.47 ml test buffer
Detection Reagent Mix: 1:100 dilution of Amplex Red Regent in test buffer
Test buffer: 200 mM Tris-HCl, Merck, Cat # 1.08219, pH 7.9; 0.1% BSA, lipid free, Roche Cat#775835

The structures appear in SMILES notation.

As usually defined, the IC50 is the concentration at which inhibition is half-maximal. On to `CCN(CC)CCNC(=O)C1CCN(c2nccc3nc(NCc4ccccc4Cl)ncc23)CC1` [Compound 96, 1-[2-(2-Chloro-benzylamino)-pyrido[4,3-d]pyrimidin-5-yl]-piperidine-4-carboxylic acid (2-diethylamino-ethyl)-amide], for which the IC50 was less than 5 µM.

`O=C(CN1CCN(c2nccc3nc(NCc4ccccc4Cl)ncc23)CC1)Nc1cccnc1` [Compound 108, 2-{4-[2-(2-Chloro-benzylamino)-pyrido[4,3-d]pyrimidin-5-yl]-piperazin-1-yl}-N-pyridin-3-yl-acetamide]: the IC50 was less than 10 µM. In the case of `O=C(Cc1cccnc1)N1CCN(c2nccc3nc(NCc4ccccc4Cl)ncc23)CC1` [Compound 121, 1-{4-[2-(2-Chloro-benzylamino)-pyrido[4,3-d]pyrimidin-5-yl]-piperazin-1-yl}-2-pyridin-3-yl-ethanone], the 50% inhibitory concentration (IC50) is less than 5 µM. Take `CC(=O)c1ccc(Nc2nccc3nc(NCc4ccccc4Cl)ncc23)cc1` [Compound 13, 1-{4-[2-(2-Chloro-benzylamino)-pyrido[4,3-d]pyrimidin-5-ylamino]-phenyl}-ethanone]: the half-inhibitory concentration (IC50) was less than 30 µM.

In the case of `Fc1ccc(CNc2ncc3c(Nc4ccccc4F)nccc3n2)cc1` [Compound 24, N2-(4-Fluoro-benzyl)-N5-(2-fluoro-phenyl)-pyrido[4,3-d]pyrimidine-2,5-diamine], the concentration for half-maximal inhibition (IC50) was less than 30 µM.

Consider `COc1ccccc1CNc1ncc2c(Nc3ccc(F)cc3)nccc2n1` [Compound 33, N5-(4-Fluoro-phenyl)-N2-(2-methoxy-benzyl)-pyrido[4,3-d]pyrimidine-2,5-diamine], for which the IC50 is less than 30 µM. As to `O=C(NC1CC1)C1CCCN(c2nccc3nc(NCc4ccccc4Cl)ncc23)C1` (stereo not drawn) [Compound 86, 1-[2-(2-Chloro-benzylamino)-pyrido[4,3-d]pyrimidin-5-yl]-piperidine-3-carboxylic acid cyclopropylamide], the IC50 was less than 5 µM. `CC(C)NC(=O)C1CCN(c2nccc3nc(NCc4ccccc4Cl)ncc23)CC1` [Compound 67, 1-[2-(2-Chloro-benzylamino)-pyrido[4,3-d]pyrimidin-5-yl]-piperidine-4-carboxylic acid isopropylamide]: the 50% inhibitory concentration (IC50) was less than 5 µM. The value for `CC(C)NC(=O)C1CCN(c2nccc3nc(NCc4ccccc4)ncc23)CC1` [Compound 61, 1-(2-Benzylamino-pyrido[4,3-d]pyrimidin-5-yl)-piperidine-4-carboxylic acid isopropylamide] was less than 30 µM; that for `Clc1ccccc1CNc1ncc2c(NCCN3CCCCC3)nccc2n1` [Compound 18, N2-(2-Chloro-benzyl)-N5-(2-piperidin-1-yl-ethyl)-pyrido[4,3-d]pyrimidine-2,5-diamine] was less than 30 µM; that for `O=C(NCc1ccco1)C1CCN(c2nccc3nc(NCc4ccc(Cl)cc4)ncc23)CC1` [Compound 79, 1-[2-(4-Chloro-benzylamino)-pyrido[4,3-d]pyrimidin-5-yl]-piperidine-4-carboxylic acid (furan-2-ylmethyl)-amide] was less than 30 µM. For the compound `COc1ccc(CNc2ncc3c(Nc4ccc(OC)cc4OC)nccc3n2)cc1` [Compound 56, N5-(2,4-Dimethoxy-phenyl)-N2-(4-methoxy-benzyl)-pyrido[4,3-d]pyrimidine-2,5-diamine], the IC50 was less than 30 µM. For `COc1ccccc1CNc1ncc2c(Nc3ccc(F)cc3F)nccc2n1` [Compound 37, N5-(2,4-Difluoro-phenyl)-N2-(2-methoxy-benzyl)-pyrido[4,3-d]pyrimidine-2,5-diamine], the IC50 was less than 30 µM. The value for `CC(C)OCCCNc1nccc2nc(NCc3ccccc3Cl)ncc12` [Compound 15, N2-(2-Chloro-benzyl)-N5-(3-isopropoxy-propyl)-pyrido[4,3-d]pyrimidine-2,5-diamine] was less than 30 µM; that for `CC(=O)CCC(=O)N1CCN(c2nccc3nc(NCc4ccccc4Cl)ncc23)CC1` [Compound 123, 1-{4-[2-(2-Chloro-benzylamino)-pyrido[4,3-d]pyrimidin-5-yl]-piperazin-1-yl}-pentane-1,4-dione] was less than 30 µM; that for `CCOC(=O)N1CCN(c2nccc3nc(NCc4ccccc4Cl)ncc23)CC1` [Compound 114, 4-[2-(2-Chloro-benzylamino)-pyrido[4,3-d]pyrimidin-5-yl]-piperazine-1-carboxylic acid ethyl ester] was less than 5 µM.

`CCCNC(=O)C1CCN(c2nccc3nc(NCc4ccccc4Cl)ncc23)CC1` [Compound 68, 1-[2-(2-Chloro-benzylamino)-pyrido[4,3-d]pyrimidin-5-yl]-piperidine-4-carboxylic acid propylamide]: the IC50 was less than 10 µM. On to `COc1ccc(Nc2nccc3nc(NCc4ccccc4)ncc23)cc1` [Compound 3, N2-Benzyl-N5-(4-methoxy-phenyl)-pyrido[4,3-d]pyrimidine-2,5-diamine], for which the IC50 was less than 30 µM. The value for `Fc1ccccc1Nc1nccc2nc(NCc3ccccc3Cl)ncc12` [Compound 100, N2-(2-Chloro-benzyl)-N5-(2-fluoro-phenyl)-pyrido[4,3-d]pyrimidine-2,5-diamine] was less than 10 µM; that for `N[C@H]1CCN(CC(=O)N2CCN(c3nccc4nc(NCc5ccccc5Cl)ncc34)CC2)C1=O` [Compound 133, (S)-3-Amino-1-(2-{4-[2-(2-chloro-benzylamino)-pyrido[4,3-d]pyrimidin-5-yl]-piperazin-1-yl}-2-oxo-ethyl)-pyrrolidin-2-one] was less than 30 µM; that for `O=C(C1CCN(c2nccc3nc(NCc4ccc(Cl)cc4)ncc23)CC1)N1CCCC1` [Compound 80, {1-[2-(4-Chloro-benzylamino)-pyrido[4,3-d]pyrimidin-5-yl]-piperidin-4-yl}-pyrrolidin-1-yl-methanone] was less than 5 µM.

With `Fc1ccc(CNc2ncc3c(N4CCCC4)nccc3n2)cc1` [Compound 20, (4-Fluoro-benzyl)-(5-pyrrolidin-1-yl-pyrido[4,3-d]pyrimidin-2-yl)-amine], the IC50 was less than 30 µM.

`Fc1ccc(Nc2nccc3nc(NCc4ccccc4)ncc23)cc1` [Compound 2, N2-Benzyl-N5-(4-fluoro-phenyl)-pyrido[4,3-d]pyrimidine-2,5-diamine]: the IC50 was less than 30 µM.

As for `CCOC(=O)CCNC(=O)C1CCN(c2nccc3nc(NCc4ccccc4Cl)ncc23)CC1` [Compound 101, 3-({1-[2-(2-Chloro-benzylamino)-pyrido[4,3-d]pyrimidin-5-yl]-piperidine-4-carbonyl}-amino)-propionic acid ethyl ester], the concentration for half-maximal inhibition (IC50) was less than 30 µM.

For the compound `CN(C)C(=O)C1CCN(c2nccc3nc(NCc4ccccc4Cl)ncc23)CC1` [Compound 140, 1-[2-(2-Chloro-benzylamino)-pyrido[4,3-d]pyrimidin-5-yl]-piperidine-4-carboxylic acid dimethylamide], the IC50 was less than 30 µM. The value for `O=C(OCc1cccnc1)N1CCN(c2nccc3nc(NCc4ccccc4Cl)ncc23)CC1` [Compound 151, 4-[2-(2-Chloro-benzylamino)-pyrido[4,3-d]pyrimidin-5-yl]-piperazine-1-carboxylic acid pyridin-3-ylmethyl ester] was less than 30 µM; that for `COCCNC(=O)C1CCN(c2nccc3nc(NCc4ccccc4Cl)ncc23)CC1` [Compound 70, 1-[2-(2-Chloro-benzylamino)-pyrido[4,3-d]pyrimidin-5-yl]-piperidine-4-carboxylic acid (2-methoxy-ethyl)-amide] was less than 5 µM.
